For data set [1], the system named is isolated left atrium of guinea pig. Description: Effect on isolated left atrium of guinea pig (Pharmacological Test 1, Table 1). The settings on record: 1×10^-4 mole, electrically stimulated 0.5 cps, 30° to 32° C. The arrangement: species or system guinea pig (male Hartley). Here is the method: Effect on isolated left atrium of guinea pig was tested according to the method described in Basic Lectures of Medicine Development, Volume V, Pharmacological Test Methods, Part 2, page 534 (1971) published by Chizin Shokan Kabushiki Kaisha in Japan. A 7-weeks-old male Hartley guinea pig (having body weight of about 350 g) was stunned by a blow on the head. The heart was cut out, and the left atrium was taken out in Krebs-Henseleit solution (prepared by adding distilled water for injection to 6.92 g of sodium chloride, 0.35 g of potassium chloride, 0.28 g of calcium chloride, 0.29 g of magnesium sulfate, 0.16 g of mono-basic potassium phosphate, 2.1 g of sodium bicarbonate and 1.8 g of glucose so that the total amount was 1000 ml) which was sufficiently bubbled with oxygen gas. The isolated left atrium was suspended in Magnus' bath at 30° to 32° C. and isometric contraction was recorded by the pen-writing oscillograph through the strain pressure amplifier connected to the force displacement pickup.
The atrium was stimulated electrically at 0.5 cps for 5 msec under a voltage of 20% above threshold. The nutritive liquid was Krebs-Henseleit solution through which 95% oxygen gas and 5% carbon dioxide was blown. Effect of each sample was tested 60 to 90 minutes after stimulation at which the generated tension became stable. In this test, corresponding concentration of each sample was 1×10^-4 mole.

Data set [2] deals with isolated auricule. The data set can be described thus: Effect on isolated auricule (Pharmacological Test 2, Table 2). The arrangement: species or system guinea pig (male Hartley). The settings on record: 3×10^-4 mole, 30°±1° C., recording 5 minutes; for activation at 300 µM: Cavia porcellus, 5 min, read-out: Increase in heart rate. Here is the method:
Effect on isolated auricule was tested according to the method of L. J. Mcleod described in Pharmacological Experiments on Intact Preparations, pages 112-115 (1970). A 7-weeks-old male Hartley guinea pig (having body weight of about 350 g) was killed by a blow on the head. The heart was cut out, and all the tissues except for the auricule were cut away in Ringer-Locke solution (prepared by adding distilled water for injection to 9.0 g of sodium chloride, 0.25 g of potassium chloride, 0.15 g of calcium chloride and 1.0 g of glucose so that the total amount was 1000 ml). One of cotton threads, which were tied to each tip of the auricule, is attached to Magnus' bath and the other to the force displacement pickup. The Magnus' bath was maintained at 30°±1° C. through which oxygen gas was bubbled. When the rhythmic movement and contraction of cardiac muscle became constant, recording by the pen-writing oscillograph was started. After 1 minute, sample compound was injected and recording was conducted for 5 minutes. After completion of recording, the isolated auricule was washed with Ringer-Locke solution until the rhythmic movement and contraction of cardiac muscle became constant. After 30 minutes, recording by the pen-writing oscillograph was started again. In this test, corresponding concentration of each sample was 3×10^-4 mole.

The nature of data set [3]: Acute toxicity, Litchfield-Wilcoxon method (Pharmacological Test 3, Table 3). The following applies: mouse, in vivo, ip; intraperitoneal injection, 6-weeks-old male ddY mice. Here is the method:
The acute toxicity was determined according to the Litchfield-Wilcoxon method, J. Pharm. Exp. Ther., 96, 99 […] using 6-weeks-old male ddY mice (having body weight of 19-24 g) while administrating the sample compound in intraperitonial injection.

Molecules are shown by their SMILES.

Take `CC1=C(c2ccnnc2)SCC(=O)N1`: the Tension increment in data set [1] was 225 ± 123 mg.

In data set [1], `CC1=C(c2ccncc2Cl)SCC(=O)N1` displayed a Tension increment of 426 ± 56 mg.

Turning to `CC1=C(c2ccncc2C=O)SCC(=O)N1`, the Tension increment in data set [1] was 278 ± 56 mg.

For the compound `CC1=C(c2ccncc2C#N)SCC(=O)N1`, the Tension increment in data set [1] was 214 ± 56 mg.

In data set [1], `CC1=C(c2ccncc2)SC(c2ccc(O)cc2)C(=O)N1` (stereo not shown) gave a Tension increment of 230 ± 92 mg.

The compound `CC1=C(c2ccncc2)SC(N2CCOCC2)C(=O)N1` (stereo not shown) had a Tension increment in data set [1] of 207 ± 47 mg.

In the case of `CC1=C(c2ccncc2)SC(C)C(=O)N1` (stereo not shown) [2,5-dimethyl-6-(4-pyridinyl)-2H-1,4-thiazin-3(4H)-one], in data set [2], the Tension increment is listed as 158 mg and the activation at 300 µM is 2%. Further, the Tension increment in data set [1] is 780 ± 93 mg. The LD50 – broadly, the dose at which mortality reaches 50% – in data set [3] was 230 mg/kg.

As to `CCC1SC(c2ccncc2)=C(C)NC1=O` (stereo not shown) [2-ethyl-5-methyl-6-(4-pyridinyl)-2H-1,4-thiazin-3(4H)-one], the values for the Tension increment in data set [2] and in data set [1] were 226 mg and 925 ± 32 mg, respectively. In addition, in data set [2], the activation at 300 µM turned out to be 2.4%. For the same compound, the LD50 in data set [3] is 130 mg/kg.

In data set [1], `CNC1SC(c2ccncc2)=C(C)NC1=O` (stereo not shown) [5-methyl-2-methylamino-6-(4-pyridinyl)-2H-1,4-thiazin-3(4H)-one] showed a Tension increment of 233 ± 46 mg.

Take `CC1=C(c2ccnc3ccccc23)SCC(=O)N1` [drawing 13]: the Tension increment in data set [1] is listed as 300 ± 125 mg.

Consider `CC1=C(c2ccnc3ccccc23)SCC(=O)N1` [drawing 25], for which, in data set [2], the Tension increment is 190 mg and the activation at 300 µM came to 2.2%.

Consider `CC1=C(c2ccncc2)SCC(=O)N1` [drawing 26], for which, in data set [2], the Tension increment is listed as 250 mg and the activation at 300 µM was found to be 9.4%.

Turning to `CC1=C(c2ccnc3ccccc23)SCC(=O)N1` [drawing 29], the LD50 in data set [3] was determined as 270 mg/kg.

`CC1=C(c2ccncc2)SCC(=O)N1` [drawing 30] showed an LD50 in data set [3] of 275 mg/kg.

The record behind these values is patent US4800201A, “1,4-thiazine derivative, and cardiotonic agent comprising it as effective component” (Zenyaku Kogyo Kabushiki Kaisha, priority 1984, dated 1989).
